# Patent US20260138990A1, “TRICYCLIC FUSED IMIDAZOLE COMPOUNDS AS CD38 MODULATORS AND USES THEREOF” (AEOVIAN PHARMACEUTICALS, INC., priority 2023, published 2026)
# Legend:
# mouse CD38 = target: T1, mouse CD38 (Mus musculus, UniProt P56528); experiment: NAD+ cyclase activity assay with mouse recombinant CD38 protein (ε-NAD fluorescence); assay type: biochemical; details: 0.6 nM mouse CD38, substrate ε-NAD, 30 min preincubation, fluorescence 300/410 nm
# T1 construct: purchased Bio-Techne GmbH 4947-AC
# T1 sequence (P56528 1-304): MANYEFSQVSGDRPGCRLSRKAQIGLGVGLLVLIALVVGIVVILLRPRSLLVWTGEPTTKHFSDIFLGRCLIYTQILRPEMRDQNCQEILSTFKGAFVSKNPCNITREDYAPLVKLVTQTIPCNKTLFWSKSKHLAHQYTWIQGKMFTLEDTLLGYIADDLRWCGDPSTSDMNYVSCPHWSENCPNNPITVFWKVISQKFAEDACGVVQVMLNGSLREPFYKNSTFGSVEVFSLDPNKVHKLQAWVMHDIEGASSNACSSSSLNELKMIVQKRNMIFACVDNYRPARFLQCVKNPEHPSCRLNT
# Method: (§1) Example 4: NAD^+ Cydase Activity Assay with Human or Mouse Recombinant CD38 Protein
# (§2) The following assay was used to determine the ability of compounds of the invention to inhibit the hydrolysis of NAD^+ by the human or mouse enzyme, CD38.
# (§3) Reaction buffer: 40 mM HEPES/NaOH pH 7.5, 250 mM sucrose, 0.01% Tween
# (§4) Final concentrations: 0.6 nM mouse CD38 (4947-AC, Bio-Techne GmbH) 1.9 nM human CD38 (AVI2404, Bio-Techne GmbH)
# (§5) Substrate: […] Nicotinamide 1,N6-ethenoadenine dinucleotide (&-NAD)
# (§6) Read-out: Fluorescence intensity (extinction 300 nm/emission 410 nm)
# (§7) Required reaction buffer, required CD38 concentration in reaction buffer and required e-NAD concentration in reaction buffer were prepared. Thereafter, 8 μL of CD38 in reaction buffer was added to High Control and compound concentration wells in 384 well plate (Corning #4514, 384 well, nonbinding surface, low volume, round bottom) and 8 μL of reaction buffer to Low Control. Compound dilutions were transferred via pintool technology that transfers 42.5 nL compound dilutions (12-point dose-response with factor three dilutions in 100% DMSO) well-to-well. Plate was subsequently shaken for 15 s at 1450 rpm and sealed for incubation for 30 min at room temperature. Thereafter, 2 μL of e-NAD in reaction buffer were added with Integra Voyager. After shaking for 15 s at 1450 rpm, plate was sealed, and assay signal were measured continuously with PHERAstar® fluorescence intensity module (extinction 300 nm/emission 410 nm).
# (§8) Dose-response curves were constructed using twelve-pointfactor three dilutions in triplicates per plate. High control (full enzyme activity) was set to assay signal of CD38 and e-NAD in presence of vehicle (DMSO) and Low control (full enzyme inhibition) was set to assay signal of e-NAD and vehicle (DMSO) in absence of CD38. For data analysis, fluorescent signal of traces corresponding to each compound concentration and High and Low control were monitored over time. Each run, High Control (full enzyme activity) was fitted to Linear equation via GraphPad Prism to determine CD38 activity from the slope and determine the time interval of linear phase of reaction to account for minor fluctuations. Thereafter, slopes of all compound concentrations were determined via fitting to same linear equation (GraphPad Prism) over the same time interval as determined for High control. […] Unless otherwise stated, fitting of curves were fixed to 100%-inhibition and unlocked for 0%-inhibition.
# human CD38 = target: T2, human CD38 (Homo sapiens, UniProt P28907); experiment: NAD+ cyclase activity assay with human recombinant CD38 protein (ε-NAD fluorescence); assay type: biochemical; details: 1.9 nM human CD38, substrate ε-NAD, 30 min preincubation, fluorescence 300/410 nm
# T2 construct: purchased Bio-Techne GmbH AVI2404
# T2 sequence (P28907 1-300): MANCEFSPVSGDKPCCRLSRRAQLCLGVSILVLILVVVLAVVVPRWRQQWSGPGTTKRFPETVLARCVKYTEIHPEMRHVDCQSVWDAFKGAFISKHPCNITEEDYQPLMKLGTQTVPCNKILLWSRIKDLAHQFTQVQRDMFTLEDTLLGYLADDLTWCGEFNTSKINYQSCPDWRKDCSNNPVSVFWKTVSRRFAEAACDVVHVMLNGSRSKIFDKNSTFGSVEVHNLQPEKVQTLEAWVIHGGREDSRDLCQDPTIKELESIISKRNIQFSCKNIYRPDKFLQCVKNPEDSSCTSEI
# Method: as §1, §2, §3, §4, §5, §6, §7, §8
IC50 (mouse CD38),IC50 (human CD38),SMILES
< 1 nM,< 30 nM,"O=C(NC1CCC(F)(F)CC1)c1ccc2c(c1)-c1cncn1CCO2 [Compound 5A, N-(4,4-Difluorocyclohexyl)-5,6-dihydrobenzo[f]imidazo[1,5-d][1,4]oxazepine-10-carboxamide]"
1 to 10 nM,< 30 nM,"COCCO[C@H]1CC[C@H](NC(=O)c2cc3c(c(F)c2F)OCCn2cncc2-3)CC1 [Compound 95A, 8,9-Difluoro-N-((1r,4r)-4-(2-methoxyethoxy)cyclohexyl)-5,6-dihydrobenzo[f]imidazo[1,5-d][1,4]oxazepine-10-carboxamide]"
< 1 nM,< 30 nM,"CC(C)(O)[C@H]1CC[C@H](NC(=O)c2ccc3c(c2)-c2cncn2CCO3)CC1 [Compound 58A, N-((1r,4r)-4-(2-Hydroxypropan-2-yl)cyclohexyl)-5,6-dihydrobenzo[f]imidazo[1,5-d][1,4]oxazepine-10-carboxamide]"
,30 to 100 nM,"COCCO[C@H]1CC[C@H](NC(=O)c2cc3c(c(Cl)c2C)OCCn2cncc2-3)CC1 [Compound 191A, 8-Chloro-N-((1r,4r)-4-(2-methoxyethoxy)cyclohexyl)-9-methyl-5,6-dihydrobenzo[f]imidazo[1,5-d][1,4]oxazepine-10-carboxamide]"
1 to 10 nM,< 30 nM,"CC1(C)CC(NC(=O)c2ccc3c(c2)-c2cncn2CCO3)C1 [Compound 141A, N-(3,3-Dimethylcyclobutyl)-5,6-dihydrobenzo[f]imidazo[1,5-d][1,4]oxazepine-10-carboxamide]"
,< 30 nM,"COCCOc1nc2cc(NC(=O)c3ccc4c(c3)-c3cncn3CCO4)ccc2s1 [Compound 45A, N-(2-(2-Methoxyethoxy)benzo[d]thiazol-5-yl)-5,6-dihydrobenzo[f]imidazo[1,5-d][1,4]oxazepine-10-carboxamide]"
1 to 10 nM,< 30 nM,"O=C(NC1CC(F)(F)C1)c1ccc2c(c1)-c1cncn1CCO2 [Compound 84A, N-(3,3-Difluorocyclobutyl)-5,6-dihydrobenzo[f]imidazo[1,5-d][1,4]oxazepine-10-carboxamide]"
< 1 nM,< 30 nM,"O=C(NC1CCC1(F)F)c1cc(F)c2c(c1)-c1cncn1CCO2 (centres unmarked) [Compound 140A, N-(2,2-Difluorocyclobutyl)-8-fluoro-5,6-dihydrobenzo[f]imidazo[1,5-d][1,4]oxazepine-10-carboxamide]"
1 to 10 nM,< 30 nM,"O=C(Nc1ccc2nc[nH]c2c1)c1ccc2c(c1)-c1cncn1CCO2 [Compound 34A, N-(1H-Benzo [d]imidazol-6-yl)-5,6-dihydrobenzo[f]imidazo[1,5-d][1,4]oxazepine-10-carboxamide]"
1 to 10 nM,30 to 100 nM,"CC(C1CCC(NC(=O)c2ccc3c(c2)-c2cncn2CCO3)CC1)C(F)(F)F (centres unmarked) [Compound 133A, N-(4-(1,1,1-Trifluoropropan-2-yl)cyclohexyl)-5,6-dihydrobenzo[f]imidazo[1,5-d][1,4]oxazepine-10-carboxamide]"
,> 1000 nM,"O=C(N[C@@H]1CCCOC1)c1ccc2c(n1)-n1cnc(c1)CCO2 [Compound 43A, (Z)—N—((R)-Tetrahydro-2H-pyran-3-yl)-5,6-dihydro-1,4-(metheno)pyrido[3,2-b][1,4,6]oxadiazonine-10-carboxamide]"
,100 to 1000 nM,"COCCO[C@H]1CC[C@H](NC(=O)c2cc3c(c(C)c2C)OCCn2cncc2-3)CC1 [Compound 179A, N-((1r,4r)-4-(2-Methoxyethoxy)cyclohexyl)-8,9-dimethyl-5,6-dihydrobenzo[f]imidazo[1,5-d][1,4]oxazepine-10-carboxamide]"
,100 to 1000 nM,"O=C(N[C@H]1CC[C@@H](OCC(F)(F)F)CC1)c1cc2c(c(F)c1F)OCCn1cncc1-2 [Compound 188A, 8,9-Difluoro-N-((1s,4s)-4-(2,2,2-trifluoroethoxy)cyclohexyl)-5,6-dihydrobenzo[f]imidazo[1,5-d][1,4]oxazepine-10-carboxamide]"
,< 30 nM,"COc1nc2cc(NC(=O)c3ccc4c(c3)-c3cncn3CCO4)ccc2s1 [Compound 44A, N-(2-Methoxybenzo[d]thiazol-5-yl)-5,6-dihydrobenzo[f]imidazo[1,5-d][1,4]oxazepine-10-carboxamide]"
,100 to 1000 nM,"Cc1c(C(=O)NC2CCC(OCC(F)(F)F)CC2)cc2c(c1C)OCCn1cncc1-2 (centres unmarked) [Compound 189A, 8,9-Dimethyl-N-(4-(2,2,2-trifluoroethoxy)cyclohexyl)-5,6-dihydrobenzo[f]imidazo[1,5-d][1,4]oxazepine-10-carboxamide]"
,< 30 nM,"CC1CC(CC(F)(F)F)CCC1NC(=O)c1cc(F)c2c(c1)-c1cncn1CCO2 (centres unmarked) [Compound 185A, 8-Fluoro-N-(2-methyl-4-(2,2,2-trifluoroethyl)cyclohexyl)-5,6-dihydrobenzo[f]imidazo[1,5-d][1,4]oxazepine-10-carboxamide]"
,< 30 nM,"CC1CC(CC(F)(F)F)CCC1NC(=O)c1cc(Cl)c2c(c1)-c1cncn1CCO2 (centres unmarked) [Compound 183A, 8-Chloro-N-(2-methyl-4-(2,2,2-trifluoroethyl)cyclohexyl)-5,6-dihydrobenzo[f]imidazo[1,5-d][1,4]oxazepine-10-carboxamide]"
,100 to 1000 nM,"C[C@@H]1C[C@H](CC(F)(F)F)CC[C@@H]1NC(=O)c1cc(Cl)c2c(c1)-c1cncn1CCO2 (relative stereo) [Compound 184A, 8-Chloro-N-(cis-2-methyl-cis-4-(2,2,2-trifluoroethyl)cyclohexyl)-5,6-dihydrobenzo[f]imidazo[1,5-d][1,4]oxazepine-10-carboxamide]"
,30 to 100 nM,"Cc1cc(CC(F)(F)F)ccc1NC(=O)c1cc(Cl)c2c(c1)-c1cncn1CCO2 [Compound 182A, 8-Chloro-N-(2-methyl-4-(2,2,2-trifluoroethyl)phenyl)-5,6-dihydrobenzo[f]imidazo[1,5-d][1,4]oxazepine-10-carboxamide]"
,30 to 100 nM,"C[C@@H]1C[C@H](CC(F)(F)F)CC[C@@H]1NC(=O)c1cc(F)c2c(c1)-c1cncn1CCO2 (relative stereo) [Compound 186A, 8-Fluoro-N-(cis-2-methyl-cis-4-(2,2,2-trifluoroethyl)cyclohexyl)-5,6-dihydrobenzo[f]imidazo[1,5-d][1,4]oxazepine-10-carboxamide]"
,< 30 nM,"O=C(N[C@H]1CC[C@H](OCC(F)(F)F)CC1)c1cc2c(c(F)c1F)OCCn1cncc1-2 [Compound 187A, 8,9-Difluoro-N-((1r,4r)-4-(2,2,2-trifluoroethoxy)cyclohexyl)-5,6-dihydrobenzo[f]imidazo[1,5-d][1,4]oxazepine-10-carboxamide]"
,< 30 nM,"O=C(NC1CCCC(C(F)(F)F)C1)c1cc(Cl)c2c(c1)-c1cncn1CCO2 (centres unmarked) [Compound 181A, 8-Chloro-N-(3-(trifluoromethyl)cyclohexyl)-5,6-dihydrobenzo[f]imidazo[1,5-d][1,4]oxazepine-10-carboxamide]"
,100 to 1000 nM,"Cc1c(C(=O)NC2CCC(F)(F)CC2)cc2c(c1C)OCCn1cncc1-2 [Compound 180A, N-(4,4-Difluorocyclohexyl)-8,9-dimethyl-5,6-dihydrobenzo[f]imidazo[1,5-d][1,4]oxazepine-10-carboxamide]"
10 to 100 nM,,"O=C(N[C@@H]1CCCOC1)c1ccc2c(n1)-n1cncc1CCO2 [Compound 42A, (R)—N-(tetrahydro-2H-pyran-3-yl)-6,7-dihydroimidazo[1,5-d]pyrido[3,2-b][1,4]oxazepine-2-carboxamide]"
